Source: patent US12390472B2 (SUZHOU SINOVENT PHARMACEUTICALS CO., LTD., priority 2018, dated 2025)
Read-outs that look alike come from different tables or passages of the source.

What was measured:
[1] = biological target: EZH2 enzyme complex (Homo sapiens (Human), UniProt Q15910); experiment: Test on EZH2 inhibitory activity (TR-FRET); assay type: biochemical; conditions: EZH2 enzyme complex 25 ng/uL, histone H3 peptide 4 uM, SAM 2 uM, 300 min; read-out: IC50 of EZH2 inhibition
[2] = tested on: WSU-DLCL2; experiment: Methylated lysine of histone-H3 (H3K27Me3) detection by ELISA, WSU-DLCL2 cells; assay type: cell-based; conditions: WSU-DLCL2, 7 days treatment, H3K27Me3 normalized to total histone-3, read-out: IC50 of cell methylation, WSU-DLCL2
Experimental: (§1) The operations for adherent cells and suspension cells cultured in 96-well plates were slightly different after they had been treated with compound (4-fold dilution 20 uM-0.009 nM, 3 duplicate wells) for 7 days, and the operations are summarized as follows: For adherent cells, after discarding the medium, 75 uL of 1-fold hypotonic lysis buffer (10 mM Tris-HCl, pH 7.5, containing halt protease inhibitor and PMSF with a final concentration of 1 mM) was added; the plate was frozen at −80° C. for at least 1 h or overnight; once the plate was taken away from the −80° C. environment, 120 uL (to a final volume of about 195 uL) of 1-fold hypotonic lysis buffer (containing protease inhibitor) was added, and the plate was thawed at room temperature and shaken for 2 min for mixing; and 8 uL (to a final volume of about 203 uL) of 2.5 M NaCl was added to each well to a final NaCl concentration of 100 mM and then the plate was shaken for an additional 2 min for mixing.
(§2) For suspension cells (final volume of medium was 100 uL/well), 25 uL of 5-fold hypotonic lysis buffer (50 mM Tris-HCl, pH 7.5, containing halt protease inhibitor and PMSF with a final concentration of 1 mM) was added, and the plate was frozen at −80° C. for at least 1 h or overnight. Once the plate was taken away from the −80° C. environment, 20 uL of 0.625 M NaCl was added to each well to a final NaCl concentration of about 100 mM, and the mixture was mixed well.
(§3) 75 uL or 100 uL of sample (with duplicate wells provided) was added to two 96-well ELISA plates (ThermoFisher Scientific; Immulon 4HBX 3885) and the plates were coated with total protein lysate and incubated overnight at 4° C. 50 uL of lysate was retained for protein quantitation if necessary. The sealing of the plates must be ensured. The plates were washed twice with 300 uL of 1×PBST (PBS containing 0.05% Tween 20) per well. Each well was blocked with 300 uL of dilution (PBS+2% BSA+0.05% Tween 20), incubated for 2 h at room temperature, and washed twice with 1×PBST. Primary antibodies were diluted with a dilution solution containing 1% BSA+0.05% Tween 20. 75-100 uL of anti-H3K27Me3 antibody (CST; 9733; 50% glycerol stock, 1:1,000) or anti-total histone-3 antibody (Abcam; ab1791; 50% glycerol stock, 1:10,000) was added to each well. The plates were incubated for 90 min at room temperature or incubated overnight at 4° C. The plates were washed three times with 1×PBST. 75-100 uL of anti-Rb-IgG-HRP secondary antibody (Cell Signaling Technology; 7074) was added per well, 1:2000 diluted secondary antibody for anti-H3K 27Me3 plate and 1:6000 diluted secondary antibody for anti-histone total histone-3 plate. The plates were incubated at room temperature for 90 min. The plate assayed with anti-histone-3 antibody was used to normalize the data for the corresponding plate assayed with anti-H3K 27me3. The plates must be washed at least three times with 1×PBST after primary or secondary antibody incubation. The plates were assayed by adding 75-100 uL of 3,3′,5,5′-tetramethylbenzidine substrate (CST or ThermoFisher Scientific; TMBS) per well and incubated away from light for 30 min at 37° C. The reaction was terminated by adding 100 uL of 0.5 M H2SO4 per well. The absorbance was read at 450 nm. Curve fitting was performed using Graph Pad program.

[3] = tested on: Pfeiffer; experiment: Methylated lysine of histone-H3 (H3K27Me3) detection by ELISA, Pfeiffer cells; assay type: cell-based, human; conditions: 7 days treatment, H3K27Me3 normalized to total histone-3, read-out: IC50 of cell methylation, Pfeiffer
Experimental: as §1, §2, §3

Chain of EZH2 enzyme complex (Q15910 whole entry): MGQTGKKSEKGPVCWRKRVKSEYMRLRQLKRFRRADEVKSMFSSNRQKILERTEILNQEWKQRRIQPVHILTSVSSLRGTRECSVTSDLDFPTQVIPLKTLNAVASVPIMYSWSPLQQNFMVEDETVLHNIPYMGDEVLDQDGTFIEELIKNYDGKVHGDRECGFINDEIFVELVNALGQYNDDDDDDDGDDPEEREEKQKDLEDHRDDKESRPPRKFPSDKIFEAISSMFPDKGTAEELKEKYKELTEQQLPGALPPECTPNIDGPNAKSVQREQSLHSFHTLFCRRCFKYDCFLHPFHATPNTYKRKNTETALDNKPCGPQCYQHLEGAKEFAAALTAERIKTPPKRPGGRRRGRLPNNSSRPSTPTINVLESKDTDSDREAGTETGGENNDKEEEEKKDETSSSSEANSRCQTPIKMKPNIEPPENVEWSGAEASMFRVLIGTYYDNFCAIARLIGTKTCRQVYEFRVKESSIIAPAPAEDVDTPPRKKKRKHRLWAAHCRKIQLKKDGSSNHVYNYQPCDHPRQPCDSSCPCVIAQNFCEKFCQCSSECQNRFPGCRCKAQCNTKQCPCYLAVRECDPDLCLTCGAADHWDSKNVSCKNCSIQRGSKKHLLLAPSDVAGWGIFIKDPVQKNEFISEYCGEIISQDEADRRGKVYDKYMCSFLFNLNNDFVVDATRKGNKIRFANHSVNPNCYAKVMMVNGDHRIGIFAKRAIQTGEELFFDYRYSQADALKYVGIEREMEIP
Chain of EZH2 enzyme complex (O75530 whole entry partner): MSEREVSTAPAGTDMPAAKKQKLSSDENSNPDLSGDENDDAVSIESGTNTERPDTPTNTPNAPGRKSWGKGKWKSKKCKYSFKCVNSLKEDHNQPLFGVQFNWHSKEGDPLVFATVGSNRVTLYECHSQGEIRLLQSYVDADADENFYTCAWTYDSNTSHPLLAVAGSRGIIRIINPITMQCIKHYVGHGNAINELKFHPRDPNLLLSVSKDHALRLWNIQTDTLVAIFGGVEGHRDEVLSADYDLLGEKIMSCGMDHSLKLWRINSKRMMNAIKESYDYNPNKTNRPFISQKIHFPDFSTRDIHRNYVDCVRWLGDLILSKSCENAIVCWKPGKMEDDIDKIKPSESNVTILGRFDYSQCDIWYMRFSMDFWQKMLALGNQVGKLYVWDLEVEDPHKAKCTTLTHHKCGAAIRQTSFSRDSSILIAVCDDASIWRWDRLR
Chain of EZH2 enzyme complex (Q15022 whole entry partner): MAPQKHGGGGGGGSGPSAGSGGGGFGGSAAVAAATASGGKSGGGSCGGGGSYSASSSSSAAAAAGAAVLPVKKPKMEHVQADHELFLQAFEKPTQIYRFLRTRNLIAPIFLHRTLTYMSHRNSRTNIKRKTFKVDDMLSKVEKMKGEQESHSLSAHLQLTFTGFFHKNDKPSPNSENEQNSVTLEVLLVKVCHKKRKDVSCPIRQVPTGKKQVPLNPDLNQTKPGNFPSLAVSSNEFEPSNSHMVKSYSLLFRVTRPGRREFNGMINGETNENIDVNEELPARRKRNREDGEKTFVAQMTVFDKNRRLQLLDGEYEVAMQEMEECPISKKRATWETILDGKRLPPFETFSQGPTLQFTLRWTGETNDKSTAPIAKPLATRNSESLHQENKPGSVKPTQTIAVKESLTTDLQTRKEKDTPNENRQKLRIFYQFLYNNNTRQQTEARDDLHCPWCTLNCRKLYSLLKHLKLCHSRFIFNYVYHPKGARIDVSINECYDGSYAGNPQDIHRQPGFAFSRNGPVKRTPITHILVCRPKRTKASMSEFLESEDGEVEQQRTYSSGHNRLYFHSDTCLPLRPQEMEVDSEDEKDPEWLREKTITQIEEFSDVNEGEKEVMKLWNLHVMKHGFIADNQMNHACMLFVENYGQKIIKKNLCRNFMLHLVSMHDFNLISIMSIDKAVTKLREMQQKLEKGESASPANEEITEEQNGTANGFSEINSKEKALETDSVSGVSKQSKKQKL

Q: `CCN(c1cc(C2CC2CN2CCN(C)CC2)cc(C(=O)NCc2c(C)cc(C)[nH]c2=O)c1C)C1CCOCC1` (stereo not drawn) [Example 74, N-((4,6-dimethyl-2-oxo-1,2-dihydropyridin-3-yl)methyl)-3-(ethyl(tetrahydro-2H-pyran-4-yl)amino)-2-methyl-5-(2-((4-methylpiperazin-1-yl)methyl)cyclopropyl)benzamide] was tested. Which IC50 [1] did it give?
A: 10 to 100 nM

Q: What about the IC50 ([2]; Homo sapiens, WSUDLCL2, 168 h) of the same compound?
A: 50 to 500 nM

Q: And the IC50 ([3]; Homo sapiens, 168 h)?
A: < 50 nM

Q: What does the source list for `CCN(c1cc(O[C@H]2C[C@@H](N3CCN(C(C)C)CC3)C2)cc(C(=O)NCc2c(C)cc(C)[nH]c2=O)c1C)C1CCOCC1` [Example 21, N-((4,6-dimethyl-2-oxo-1,2-dihydropyridin-3-yl)methyl)-3-(ethyl(tetrahydro-2H-pyran-4-yl)amino)-5-(cis-3-(4-isopropylpiperazin-1-yl)cyclobutoxy)-2-methylbenzamide]?
A: IC50 [1]: 10 to 100 nM; IC50 ([2]; Homo sapiens, WSUDLCL2, 168 h): 50 to 500 nM; IC50 ([3]; Homo sapiens, 168 h): < 50 nM

Q: Which IC50 [1] does the source give for `CCN(c1cc(O[C@H]2C[C@H](CN3CCOCC3)C2)cc(C(=O)NCc2c(C)cc(C)[nH]c2=O)c1Cl)C1CCOCC1` [Example 29, 2-chloro-N-((4,6-dimethyl-2-oxo-1,2-dihydropyridin-3-yl)methyl)-3-(ethyl(tetrahydro-2H-pyran-4-yl)amino)-5-(trans-3-(morpholinylmethyl)cyclobutoxy)benzamide] here?
A: 10 to 100 nM

Q: And the IC50 ([2]; Homo sapiens, WSUDLCL2, 168 h)?
A: 50 to 500 nM

Q: What about the IC50 ([3]; Homo sapiens, 168 h) of the same compound?
A: < 50 nM

Q: What does the source list for `CCN(c1cc(OC2CC(C)C2)cc(C(=O)NCc2c(C)cc(C)[nH]c2=O)c1C)C1CCOCC1` (stereo not drawn) [Example 2, N-((4,6-dimethyl-2-oxo-1,2-dihydropyridin-3-yl)methyl)-3-(ethyl(tetrahydro-2H-pyran-4-yl)amino)-2-methyl-5-(3-methylcyclobutoxy)benzamide]?
A: IC50 [1]: 10 to 100 nM; IC50 ([2]; Homo sapiens, WSUDLCL2, 168 h): 500 to 1000 nM; IC50 ([3]; Homo sapiens, 168 h): 50 to 500 nM

Q: For `CCN(c1cc(O[C@H]2C[C@H](N3CC4CCC(C3)O4)C2)cc(C(=O)NCc2c(C)cc(C)[nH]c2=O)c1Cl)C1CCOCC1` [Example 49, 5-(trans-3-(8-oxa-3-azabicyclo[3.2.1]octan-3-yl)cyclobutoxy)-2-chloro-N-((4,6-dimethyl-2-oxo-1,2-dihydropyridin-3-yl)methyl)-3-(ethyl(tetrahydro-2H-pyran-4-yl)amino)benzamide], which IC50 [1] is on record?
A: 10 to 100 nM

Q: What about the IC50 ([2]; Homo sapiens, WSUDLCL2, 168 h) of the same compound?
A: 50 to 500 nM

Q: What about the IC50 ([3]; Homo sapiens, 168 h) of the same compound?
A: > 1000 nM

Q: Which results are given for `CCN(c1cc(OC2CC(CN3CCOCC3)C2)cc(C(=O)NCc2c(C)cc(C)[nH]c2=O)c1C)C1CCOCC1` (stereo not drawn) [Example 16, N-((4,6-dimethyl-2-oxo-1,2-dihydropyridin-3-yl)methyl)-3-(ethyl(tetrahydro-2H-pyran-4-yl)amino)-2-methyl-5-(3-(morpholinylmethyl)cyclobutoxy)benzamide]?
A: IC50 [1]: 10 to 100 nM; IC50 ([2]; Homo sapiens, WSUDLCL2, 168 h): 50 to 500 nM; IC50 ([3]; Homo sapiens, 168 h): < 50 nM

Q: With `CCN(c1cc(OC2CC(N3CCOCC3)C2)cc(C(=O)NCc2c(C)cc(C)[nH]c2=O)c1C)[C@H]1CC[C@H](N(C)CCOC)CC1` (stereo partly drawn) [Example 34, N-((4,6-dimethyl-2-oxo-1,2-dihydropyridin-3-yl)methyl)-3-(ethyl(trans-4-((2-methoxyethyl)(methyl)amino)cyclohexyl)amino)-2-methyl-5-(3-morpholinylcyclobutoxy)benzamide] as the compound, how does the IC50 [1] read?
A: 10 to 100 nM

Q: And the IC50 ([2]; Homo sapiens, WSUDLCL2, 168 h)?
A: 500 to 1000 nM

Q: What about the IC50 ([3]; Homo sapiens, 168 h) of the same compound?
A: < 50 nM

Q: Which results are given for `CCN(c1cc(O[C@H]2C[C@H](N3CCN(C(C)C)CC3)C2)cc(C(=O)NCc2c(C)cc(C)[nH]c2=O)c1C)C1CCOCC1` [Example 22, N-((4,6-dimethyl-2-oxo-1,2-dihydropyridin-3-yl)methyl)-3-(ethyl(tetrahydro-2H-pyran-4-yl)amino)-5-(trans-3-(4-isopropylpiperazin-1-yl)cyclobutoxy)-2-methylbenzamide]?
A: IC50 [1]: 10 to 100 nM; IC50 ([2]; Homo sapiens, WSUDLCL2, 168 h): 50 to 500 nM; IC50 ([3]; Homo sapiens, 168 h): < 50 nM

Q: With `CCN(c1cc(O[C@H]2C[C@H](N3C[C@@H](C)O[C@@H](C)C3)C2)cc(C(=O)NCc2c(C)cc(C)[nH]c2=O)c1C)C1CCOC1` (stereo partly drawn) [Example 46, N-((4,6-dimethyl-2-oxo-1,2-dihydropyridin-3-yl)methyl)-5-(trans-3-(cis-2,6-dimethylmorpholinyl)cyclobutoxy)-3-(ethyl(tetrahydrofuran-3-yl)amino)-2-methylbenzamide] as the compound, how does the IC50 [1] read?
A: < 10 nM

Q: And the IC50 ([2]; Homo sapiens, WSUDLCL2, 168 h)?
A: 50 to 500 nM

Q: And the IC50 ([3]; Homo sapiens, 168 h)?
A: 500 to 1000 nM

Q: How did the IC50 [1] turn out when `CCN(c1cc(C2CC2CN2CCOCC2)cc(C(=O)NCc2c(C)cc(C)[nH]c2=O)c1C)C1CCOCC1` (stereo not drawn) [Example 72, N-((4,6-dimethyl-2-oxo-1,2-dihydropyridin-3-yl)methyl)-3-(ethyl(tetrahydro-2H-pyran-4-yl)amino)-2-methyl-5-(2-(morpholinylmethyl)cyclopropyl)benzamide] was run?
A: 10 to 100 nM

Q: And the IC50 [2]?
A: 50 to 500 nM

Q: What about the IC50 [3] of the same compound?
A: < 50 nM

Q: `CCN(c1cc(C2CC2CN2CCCCC2)cc(C(=O)NCc2c(C)cc(C)[nH]c2=O)c1C)C1CCOCC1` (stereo not drawn) [Example 77, N-((4,6-dimethyl-2-oxo-1,2-dihydropyridin-3-yl)methyl)-3-(ethyl(tetrahydro-2H-pyran-4-yl)amino)-2-methyl-5-(2-(piperidin-1-ylmethyl)cyclopropyl)benzamide] was tested. Which IC50 [1] did it give?
A: 10 to 100 nM

Q: And the IC50 ([2]; Homo sapiens, WSUDLCL2, 168 h)?
A: 50 to 500 nM

Q: And the IC50 ([3]; Homo sapiens, 168 h)?
A: < 50 nM

Q: Which results are given for `CCN(c1cc(O[C@H]2C[C@@H](N3CCN(S(C)(=O)=O)CC3)C2)cc(C(=O)NCc2c(C)cc(C)[nH]c2=O)c1C)C1CCOCC1` [Example 27, N-((4,6-dimethyl-2-oxo-1,2-dihydropyridin-3-yl)methyl)-3-(ethyl(tetrahydro-2H-pyran-4-yl)amino)-2-methyl-5-(cis-3-(4-(methylsulfonyl)piperazin-1-yl)cyclobutoxy)benzamide]?
A: IC50 [1]: < 10 nM; IC50 ([2]; Homo sapiens, WSUDLCL2, 168 h): < 50 nM; IC50 ([3]; Homo sapiens, 168 h): < 50 nM

Q: Which IC50 [1] does the source give for `CCN(c1cc(OC2CC(C(=O)N3CCOCC3)C2)cc(C(=O)NCc2c(C)cc(C)[nH]c2=O)c1C)C1CCOCC1` (stereo not drawn) [Example 13, N-((4,6-dimethyl-2-oxo-1,2-dihydropyridin-3-yl)methyl)-3-(ethyl(tetrahydro-2H-pyran-4-yl)amino)-2-methyl-5-(3-(morpholine-4-carbonyl)cyclobutoxy)benzamide] here?
A: 10 to 100 nM

Q: What about the IC50 ([2]; Homo sapiens, WSUDLCL2, 168 h) of the same compound?
A: 50 to 500 nM

Q: What about the IC50 ([3]; Homo sapiens, 168 h) of the same compound?
A: < 50 nM

Q: For `CCN(c1cc(O[C@H]2C[C@H](CN3CCCCC3)C2)cc(C(=O)NCc2c(C)cc(C)[nH]c2=O)c1C)C1CCOCC1` [Example 36, N-((4,6-dimethyl-2-oxo-1,2-dihydropyridin-3-yl)methyl)-3-(ethyl(tetrahydro-2H-pyran-4-yl)amino)-2-methyl-5-(trans-3-(piperidin-1-ylmethyl)cyclobutoxy)benzamide], which IC50 [1] is on record?
A: 10 to 100 nM

Q: And the IC50 ([2]; Homo sapiens, WSUDLCL2, 168 h)?
A: 50 to 500 nM

Q: And the IC50 ([3]; Homo sapiens, 168 h)?
A: < 50 nM

Q: With `CCN(c1cc(O[C@H]2C[C@@H](N3CCNCC3)C2)cc(C(=O)NCc2c(C)cc(C)[nH]c2=O)c1C)C1CCOCC1` [Example 17, N-((4,6-dimethyl-2-oxo-1,2-dihydropyridin-3-yl)methyl)-3-(ethyl(tetrahydro-2H-pyran-4-yl)amino)-2-methyl-5-(cis-3-(piperazin-1-yl)cyclobutoxy)benzamide] as the compound, how does the IC50 [1] read?
A: < 10 nM

Q: And the IC50 ([2]; Homo sapiens, WSUDLCL2, 168 h)?
A: 50 to 500 nM

Q: What about the IC50 ([3]; Homo sapiens, 168 h) of the same compound?
A: < 50 nM

Q: How did the IC50 [1] turn out when `CCN(c1cc(S(=O)(=O)C2CCC2)cc(C(=O)NCc2c(C)cc(C)[nH]c2=O)c1C)C1CCOCC1` [Example 10, 5-(cyclobutylsulfonyl)-N-((4,6-dimethyl-2-oxo-1,2-dihydropyridin-3-yl)methyl)-3-(ethyl(tetrahydro-2H-pyran-4-yl)amino)-2-methylbenzamide] was run?
A: 100 to 1000 nM

Q: What about the IC50 ([2]; Homo sapiens, WSUDLCL2, 168 h) of the same compound?
A: > 1000 nM

Q: And the IC50 ([3]; Homo sapiens, 168 h)?
A: 500 to 1000 nM
